Assay results from the NIST ThermoML archive (doi:10.1016/j.jct.2005.05.003).
Numbers after ± are expanded uncertainties.

Conditions: Liquid, Vibrating tube method

CO [methanol]
mass density (298.26 K, 235 kPa): 785.98 ± 0.49 kg/m3 | mass density (298.26 K, 5000 kPa): 790.69 ± 0.5 kg/m3 | mass density (298.26 K, 9999 kPa): 795.4 ± 0.51 kg/m3 | mass density (298.26 K, 15013 kPa): 799.88 ± 0.53 kg/m3 | mass density (298.26 K, 19987 kPa): 804.1 ± 0.54 kg/m3 | mass density (298.26 K, 25008 kPa): 808.17 ± 0.56 kg/m3 | mass density (298.26 K, 29997 kPa): 812.04 ± 0.57 kg/m3 | mass density (298.26 K, 34991 kPa): 815.76 ± 0.59 kg/m3 | mass density (298.26 K, 39981 kPa): 819.34 ± 0.61 kg/m3 | mass density (323.22 K, 270 kPa): 762.14 ± 0.48 kg/m3 | mass density (323.22 K, 4990 kPa): 767.53 ± 0.49 kg/m3 | mass density (323.22 K, 9984 kPa): 772.87 ± 0.5 kg/m3 | mass density (323.22 K, 14982 kPa): 777.91 ± 0.52 kg/m3 | mass density (323.22 K, 19989 kPa): 782.69 ± 0.54 kg/m3 | mass density (323.22 K, 24986 kPa): 787.21 ± 0.56 kg/m3 | mass density (323.22 K, 29995 kPa): 791.53 ± 0.58 kg/m3 | mass density (323.22 K, 34987 kPa): 795.64 ± 0.6 kg/m3 | mass density (323.22 K, 39993 kPa): 799.6 ± 0.62 kg/m3 | mass density (348.25 K, 366 kPa): 737.29 ± 0.46 kg/m3 | mass density (348.25 K, 4987 kPa): 743.46 ± 0.48 kg/m3 | mass density (348.25 K, 9986 kPa): 749.65 ± 0.5 kg/m3 | mass density (348.25 K, 14991 kPa): 755.42 ± 0.52 kg/m3 | mass density (348.25 K, 20004 kPa): 760.84 ± 0.54 kg/m3 | mass density (348.25 K, 25020 kPa): 765.94 ± 0.56 kg/m3 | mass density (348.25 K, 30013 kPa): 770.76 ± 0.59 kg/m3 | mass density (348.25 K, 34989 kPa): 775.32 ± 0.61 kg/m3 | mass density (348.25 K, 40000 kPa): 779.7 ± 0.64 kg/m3 | mass density (373.26 K, 534 kPa): 710.55 ± 0.45 kg/m3 | mass density (373.26 K, 4983 kPa): 717.67 ± 0.47 kg/m3 | mass density (373.26 K, 9990 kPa): 724.99 ± 0.49 kg/m3 | mass density (373.26 K, 14998 kPa): 731.69 ± 0.52 kg/m3 | mass density (373.26 K, 19985 kPa): 737.88 ± 0.54 kg/m3 | mass density (373.26 K, 24994 kPa): 743.68 ± 0.57 kg/m3 | mass density (373.26 K, 29997 kPa): 749.13 ± 0.6 kg/m3 | mass density (373.26 K, 35001 kPa): 754.27 ± 0.63 kg/m3 | mass density (373.26 K, 39996 kPa): 759.14 ± 0.65 kg/m3 | mass density (398.28 K, 934 kPa): 680.93 ± 0.44 kg/m3 | mass density (398.28 K, 4984 kPa): 689 ± 0.46 kg/m3 | mass density (398.28 K, 9998 kPa): 697.91 ± 0.49 kg/m3 | mass density (398.28 K, 14986 kPa): 705.88 ± 0.52 kg/m3 | mass density (398.28 K, 19987 kPa): 713.16 ± 0.55 kg/m3 | mass density (398.28 K, 24992 kPa): 719.87 ± 0.58 kg/m3 | mass density (398.28 K, 29991 kPa): 726.11 ± 0.61 kg/m3 | mass density (398.28 K, 35005 kPa): 731.99 ± 0.64 kg/m3 | mass density (398.28 K, 40004 kPa): 737.47 ± 0.68 kg/m3
